One series has as its system 4T1 mouse mammary tumors. Briefly: In vivo laser treatment of implanted 4T1 mammary tumors in mice with SWNT-annexin V complex. The arrangement: species or system BALB/cJ mice.
The test system of series [1] is human endothelial cells.
Method: The effects of irradiation of SWNTs bound to endothelial cells were tested in vitro. […] The following procedure was used to treat human endothelial cells in vitro with SWNT-CMC-annexin V bound.
Cells were grown using F12K media containing 10% FBS until they reach 85% confluence in T-75 flasks, and the cells were then counted using a hemocytometer. Cancer cells (5×10^4) were transferred to 24 well plates (6 plates, with 3 wells per plate containing cells) and grown until 85% confluence was reached. Two extensive dialyses were performed (with a total dilution factor of 1,000,000×) in order to remove the sodium azide from the SWNT-CMC-biotinylated annexin V. The first dialysis for 3 hours (1000×) was performed using modification buffer (100 mM sodium phosphate, 150 mM NaCl, pH 7.2-7.4). The buffer was changed and the dialysis continued for 4 more hours. 1 ml of the suspension of SWNT-CMC-biotinylated annexin V was used. PS was exposed on the surface of cells by the addition of hydrogen peroxide (1 mM), and the cells were treated with 300 μl binding buffer containing the F12K media containing 1 mM of H2O2 for 1 hour at 37° C. The plates were washed 4× with F12K media (containing 10% FBS) (300 μl), and SWNT-CMC-biotinylated-annexin V (300 μl) was added to wells at a concentration of 20 nM. In order to obtain this concentration, the protein was diluted using F12K media (containing 10% FBS plus 2 mM Ca^2+). For each plate, the experiment was done in triplets. The plates were incubated for 2 hours in the incubator and then washed 4× with F12K media (containing 10% FBS plus 2 mM Ca^2+) (300 μl). […] Cell viability was evaluated one hour later by adding Alamar Blue in an amount equal to 10% of culture media (30 μl of Alamar Blue+300 μl of media) volume to the wells. […] Fluorescence was then measured at 590 nm (using excitation at 530 nm). […] The cells that were attached were treated with trypsin, and the cells were combined in the 96-well plates and counted in a hemocytometer. […]
Series [2] concerns human endothelial cells with phosphatidylserine exposed by H2O2. Briefly: Binding of SWNT-annexin V (biotinylated) to human endothelial cells in vitro (streptavidin-HRP/OPD, A450). The protocol:
Purified recombinant annexin V was labeled with biotin for detection (SureLINK chromophoric biotin labeling kit; KPL, Gaithersburg, Md.) with a 40-molar excess of biotin. Biotin labeling of annexin V has been found previously not to impair the PS-binding of annexin V. The following procedure was used to measure the binding of the SWNT-annexin V (biotinylated) to human endothelial cells in vitro.
Human endothelial cells (American Type Culture Collection, Manassas, Va.) were grown as monolayers in T-75 flasks. […] The cells were fixed by adding 100 μl of phosphate buffered saline (PBS) buffer containing 0.25% glutaraldehyde and Ca^2+ (2 mM). Excess aldehyde groups were quenched by incubating with 50 mM of NH4Cl (100 μl) diluted in PBS buffer containing Ca^2+ (2 mM) for 5 minutes. The SWNT-annexin V conjugate was diluted in 0.5% BSA diluted in PBS buffer and Ca^2+ (2 mM) with an initial concentration of […]. This concentrated fusion protein solution was serially diluted 2-fold until a final concentration of 6.7 μM. SWNT-CMC-annexin V (300 μl) was added to wells in the increasing concentration of SWNT-CMC-annexin V. For each concentration of SWNT-CMC-annexin V, the experiment was done in duplicate and incubated for 2 hours. Plates were washed with 0.5% BSA diluted in PBS buffer and Ca^2+ (2 mM) (300 μl). 300 μl of streptadivin-HRP (horseradish peroxidase) (2 μg/ml) was added and incubated for 1 hour at room temperature. The plate was then washed with PBS (300 μl), and the chromogenic substrate O-phenylenediamine (OPD, 300 μl) was added and incubated for 30 minutes. 100 μl of the supernatant was then transferred to 96-well plates, and absorbance was measured at 450 nm (Biotek KC4 microtiter plate reader) using a blank that omits the addition of SWNT-annexin V described above.
The data obtained above for the binding of SWNT-CMC-annexin V to human endothelial cells in vitro was used in the determination of the dissociation constant (Kd). […]

Series [3] deals with human endothelial cells. Put plainly: Laser irradiation of human endothelial cells with SWNT-Fmoc-NH-PEG-NHS-annexin V bound (Alamar Blue). It counts as cell-based. As to conditions: 20 nM protein. The protocol:
The procedure described above was applied using the human annexin V protein but any Annexin described herein could be used. […] The media was warmed up in the incubator at 37° C. and then removed from the wells. […] For each plate, the experiment was performed in triplets.
The samples (300 μl/well) were then transferred to a 96-microtiter plate, and fluorescence was measured at 590 nm (using excitation at 530 nm).
(In general: The colour change of resazurin is a common sign of viable cells or microbes.)

Series [4] concerns human endothelial cells. Briefly: Laser treatment of human endothelial cells with SWNT-annexin V complex, SDS method (Alamar Blue). Type of series: cell-based. The protocol: SWNTs with annexin V conjugated using the Fmoc-NH-PEG-NHS linker added via the SDS method were used in a laser test with endothelial cells. […] The endothelial cells were transferred to 24 well plates (5×10^4 cells per well) and grown until 100% confluence was reached. A separate plate was used for each different treatment. The media was warmed up in the incubator at 37° C., and the media was removed from the wells. […] For each plate, the experiment was done with two or three wells.
300 μl of F12K media was added with 2 mM Ca^2+ to the wells, and the laser treatment was performed on each well using a beam with a diameter of 1.8 cm, power level of 3.9 W, and beam time of 130 s (energy density=199 J/cm^2).
Then, SWNT-annexing V was added to the wells as described above.

Series [5] has as its system non-small-cell lung cancer (NSCLC) with pleural spread. To be noted: 22 patients, photosensitizer 24 hours before surgery, 603 nm light; cited from earlier work.
The conditions of series [6]: patients; cited from earlier work.
[7] abbreviates: human endothelial cells, FIG. 1.

Like-named read-outs stand apart in the source and are kept apart here.

Method for 4T1 mouse mammary tumors: In another embodiment, female BALB/cJ mice, age 6 weeks (received from Jackson Laboratory (Bar Harbor, Me.) were treated. Animal experimentation was not started until the animals were 9 weeks old. The animals were kept in a dedicated room in the animal facility located in the Zoology building of the University of Oklahoma. All of the protocols used involving animals were previously submitted and approved by the Institutional Animal Care and Use Committee (IACUC). All of the animals were placed in appropriate cages with food and water in an adequate environment. Each cage hosted five animals. The anesthetics used were ketamine (100 mg/ml) and xylazine (20 mg/ml). In order to prepare the anesthetic solution, 1 ml of ketamine (100 mg/ml) was mixed with 0.5 ml of xylazine (20 mg/ml) and 8.5 ml of sterile saline solution (0.9% NaCl). The dosage used for each animal was equal to 0.1 ml of the stock solution per 10 grams of body weight. Prior to anesthetizing the animals, each of them was weighted using a scale.
In order to evaluate the ability to eradicate the tumors using this therapy in vivo, it was necessary to implant a suitable cancer cell line in the animals. The 4T1 cell line was chosen for this study, since these cells have the ability to replicate at a fast rate and also develop visible tumors in BALB/c mice in a matter of less than one week after implantation. […] After having the eight T-75 flasks growing for 2 days, there are plenty of cells to inject the animals, for each test. The cells are then lifted from the flasks using ACCUTASE® solution (Innovative Cell Technologies, San Diego, Calif.), using the same procedure as for human endothelial cells. […] Knowing that it is necessary to inject 5×10^5 cells/animal (volume=100 μl), the total number of cells was determined. The cell concentration in the sample was evaluated using the standard cell counting procedure. […]
After irradiation, the tumor volumes were monitored every two days. […] The length and width of the tumors was measured using a digital caliper. The tumor volumes were determined by applying the following formula: […]

On to `O=P1(N(CCCl)CCCl)NCCCO1` (centres unmarked) [CY, cyclophosphamide], for which the “effect of addition of CY on tumor volume reduction” value with 4T1 mouse mammary tumors (CY 50 mg/kg i.p. added to SWNTs+Laser) is listed as “did not translate into a significant difference”. In addition, the “effect of CY on metastatic nodules compared to laser+SWNT treatment alone” value with 4T1 mouse mammary tumors (lungs) was “did not lead to fewer metastatic nodules”. For the same compound, the “effect of addition of CY on survival” value in the series on 4T1 mouse mammary tumors (treatment group that received CY compared to the one that did not) was “increased survival”.

As usually defined, the Kd is a measure of binding affinity in units of concentration. As to “SWNT-CMC-annexin V: Recombinant annexin V (biotinylated) conjugated via EDC/NHS to carboxymethylcellulose (30 kDa) adsorbed to single-walled carbon nanotubes”, in the series on human endothelial cells [1], the “difference in RFU between cells with nanotubes and cells without nanotubes” value was “no significant difference”. In addition, the “cell number at 4 W/cm^2 relative to 0 W/cm^2” value in the series on human endothelial cells [1] (20 nM complex bound, 980 nm, 20 J/cm^2, hemocytometer) is recorded as 50%. Further, the “difference in RFU between cells with nanotubes and cells without nanotubes” value with human endothelial cells [1] (power level of 2 W/cm^2, 980 nm, 20 J/cm^2) is “no significant difference”. Moreover, in series [2] (binding to human endothelial cells in vitro, PS exposed with 1 mM H2O2, fit with Prism 5, read-out: dissociation constant (Kd)), the dissociation constant Kd came to 2.9 nM. In series [2] (setting [7]), the “binding to the cells” value is “binding to the cells increased as the annexin V-SWNT complex concentration increased” and the “concentration above which transition from negligible binding to measurable binding occurred” value is listed as more than 1000 pM.

Regarding “SWNT-Fmoc-NH-PEG-NHS-annexin V: Human annexin V attached via Fmoc-NH-PEG-NHS linker adsorbed to SWNTs dispersed with sodium cholate”, the “effect on the cells (Alamar Blue)” value in the series on human endothelial cells [3] (with laser 980 nm 1.50 W/cm^2 for 130 seconds (195 J/cm^2), H2O2, 85% confluence) is on record as “killing virtually all of the cells”; with human endothelial cells [3] (without laser) it was “no effect on the cells”.

For “SWNT-annexin V: SWNTs with annexin V conjugated using the Fmoc-NH-PEG-NHS linker added via the SDS method”, the cell viability entry with human endothelial cells [4] (0.89 mg/L SWNT, 299 J/cm^2, hydrogen peroxide, versus 199 J/cm^2) is “again lower”. Besides, in the series with human endothelial cells [4] (0.89 mg/L SWNTs, laser energy 199 J/cm^2, hydrogen peroxide, 100% confluent cells), the “reduction of cell viability compared with untreated cells” value came to 60%. For the same compound, the “effect on cell viability” value in the series on human endothelial cells [4] (laser at 199 J/cm^2, 0.06-0.89 mg/L SWNT, no H2O2, significant (p<0.05) at 0.89 mg/L) is given as “concentration-dependent effect on cell viability”. For the same compound, the “effect on the cells (Alamar Blue)” value in the series with human endothelial cells [4] (without laser (plate 2, 0.06 mg/L SWNT)) is listed as “no effect on the cells”.

Turning to porfimer sodium [porfirmer sodium], the median survival in series [5] was 21 months. In addition, the side effect result in series [6] is recorded as “prolonged skin photosensitivity”.

The values are drawn from patent US9504745B2, “Compositions and methods for cancer treatment using targeted carbon nanotubes” (The Board of Regents of the University of Oklahoma, priority 2007, dated 2016).
